Experiments:
[1] = tested on: Aβ42; assay: In vivo efficacy: Aβ42 lowering in brain after single oral dose (Table 8); conditions: mouse brain soluble fraction, ELISA, compared to untreated animals
Text: (§1) To determine whether acute administration of an Aβ42 lowering agent would reduce Aβ42 levels in vivo, non-transgenic rodents, e.g. mice or rats were used. Alternatively, two to three month old Tg2576 mice expressing APP695 containing the “Swedish” variant can be used or a transgenic mouse model developed by Dr. Fred Van Leuven (K.U.Leuven, Belgium) and co-workers, with neuron-specific expression of a clinical mutant of the human amyloid precursor protein [V7171] (Moechars et al., 1999 J. Biol. Chem. 274, 6483). Young transgenic mice have high levels of Aβ in the brain but no detectable Aβ deposition. At approximately 6-8 months of age, the transgenic mice start to display spontaneous, progressive accumulation of β-amyloid (Aβ) in the brain, eventually resulting in amyloid plaques within the subiculum, hippocampus and cortex. Animals treated with the Aβ42 lowering agent were examined and compared to those untreated or treated with vehicle and brain levels of soluble Aβ42 and total Aβ would be quantitated by standard techniques, for example, using ELISA. Treatment periods varied from hours to days and were adjusted based on the results of the Aβ42 lowering once a time course of onset of effect could be established.
(§2) A typical protocol for measuring Aβ42 lowering in vivo is shown but it is only one of many variations that could be used to optimize the levels of detectable Aβ. For example, Aβ42 lowering compounds were formulated in 20% of Captisol® (a sulfobutyl ether of β-cyclodextrin) in water or 20% hydroxypropyl β cyclodextrin. The Aβ42 lowering agents were administered as a single oral dose or by any acceptable route of administration to overnight fasted animals. After four hours, the animals were sacrificed and Aβ42 levels were analysed.
(§3) Blood was collected by decapitation and exsanguinations in EDTA-treated collection tubes. Blood was centrifuged at 1900 g for 10 min at 4° C. and the plasma recovered and flash frozen for later analysis. The brain was removed from the cranium and hindbrain. The cerebellum was removed and the left and right hemisphere were separated. The left hemisphere was stored at −18° C. for quantitative analysis of test compound levels. The right hemisphere was rinsed with phosphate-buffered saline (PBS) buffer and immediately frozen on dry ice and stored at −80° C. until homogenization for biochemical assays.
(§4) Mouse brains were resuspended in 10 volumes of 0.4% DEA (diethylamine)/50 mM NaCl pH 10 (for non-transgenic animals) or 0.1% 3-[(3-cholamidopropyl)-dimethyl-ammonio]-1-propanesulfonate (CHAPS) in tris buffered saline (TBS) (for transgenic animals) containing protease inhibitors (Roche-11873580001 or 04693159000 per gram of tissue, e.g. for 0.158 g brain, add 1.58 ml of 0.4% DEA. All samples were sonicated for 30 sec on ice at 20% power output (pulse mode). Homogenates were centrifuged at 221.300×g for 50 min. The resulting high speed supernatants were then transferred to fresh tubes and were optionally further purified before the next step. A portion of the supernatant was neutralized with 10% 0.5 M Tris-HCl and this was used to quantify Aβtotal.
(§5) The obtained supernatants were purified with Water Oasis HLB reverse phase columns (Waters Corp., Milford, Mass.) to remove non-specific immunoreactive material from the brain lysates prior subsequent Aβ detection. Using a vacuum manifold, all solutions were passed through the columns at a rate of approximately 1 ml per minute, so the vacuum pressure was adjusted accordingly throughout the procedure. Columns were preconditioned with 1 ml of 100% MeOH, before equilibration with 1 ml of H2O. Non-neutralized brain lysates were loaded onto the columns. The loaded samples were then washed twice with the first wash performed with 1 ml of 5% MeOH, and the second wash with 1 ml of 30% MeOH. Finally, the Aβ was eluted from the columns and into 100×30 mm glass tubes, with a solution of 90% MeOH with 2% NH4OH. […]

[2] = tested on: Aβtotal; assay: In vivo efficacy: Aβtotal lowering in brain after single oral dose (Table 8); conditions: mouse brain soluble fraction, ELISA, compared to untreated animals
Text: as §1, §2, §3, §4, §5

[3] = tested on: Aβtotal; assay: Method 1: Aβtotal sandwich ELISA in supernatant of SKNBE2 cells carrying APP 695-wild type (Tables 7a, 7b); format: cell-based
In short: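 SKNBE2 cells expressing wild-type APP695 were exposed to compound for 18 Hours in Ultraculture with 1% glutamine. Aβtotal in the supernatant was read by 6E10-capture/biotinylated 4G8 sandwich ELISA with a fluorogenic peroxidase read-out, and WST-1 checked toxicity. IC50 came from a 4-parameter fit of percent inhibition or percent of control versus concentration.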

[4] = tested on: Aβ42; assay: Method 1: Aβ42 sandwich ELISA in supernatant of SKNBE2 cells carrying APP 695-wild type (Tables 7a, 7b); format: cell-based
In short: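 SKNBE2 cells expressing wild-type APP695 were exposed to compound for 18 hours. Secreted Aβ42 was quantified by sandwich ELISA with C-terminal-selective capture, biotinylated 3D6 detection and TMB read-out at 450 nm. IC50 came from 4-parameter fits of % inhibition or % of untreated control; WST-1 monitored toxicity.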

[5] = tested on: Aβtotal; assay: Method 2: Aβtotal Alphalisa in supernatant of SKNBE2 cells carrying APP 695-wild type (Table 7c); format: cell-based; conditions: Method 2, Alphalisa, overnight incubation
In short: (§6)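 SKNBE2 cells expressing wild-type APP695 incubated overnight at 37° C with test compound, 10^4 cells/well. Supernatant Aβ42 (C-terminal JRF/cAβ42/26 with N-terminal JRF/AβN/25) and Aβtotal (JRF/AβN/25 with 4G8) quantified by AlphaLISA. IC50 from 4-parameter fit of percent of untreated control.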

[6] = tested on: Aβ42; assay: Method 2: Aβ42 Alphalisa in supernatant of SKNBE2 cells carrying APP 695-wild type (Table 7c); format: cell-based; conditions: Method 2, Alphalisa, overnight incubation
In short: as §6

[7] = tested on: Notch-processing activity of the γ-secretase-complex; assay: Notch cell-free assay (NICD production from recombinant Notch substrate N99); format: biochemical; conditions: 1 μM test compound; 0.3-0.5 μM mouse Notch substrate; enriched gamma secretase; 37° C., 6 to 22 h; western blot; control GSI concentration not given
Description: The Notch transmembrane domain is cleaved by gamma secretase to release Notch Intracellular C-terminal Domain (NICD).
To monitor the effect of compounds on NICD production, a recombinant Notch substrate (N99) was prepared. The Notch substrate, comprised of mouse Notch fragment (V1711-E1809), an N-terminal methionine and a C-terminal FLAG sequence ([…]), was expressed in E. coli and purified on a column containing an anti-FLAG M2 affinity matrix.
A typical Notch cell-free assay consisted of 0.3-0.5 μM Notch substrate, an enriched preparation of gamma secretase and 1 μM of a test compound (compounds 16, 18 and 106 of the present invention). Controls included a gamma secretase inhibitor (GSI), such as (2S)—N-[2-(3,5-difluorophenyl)acetyl]-L-alanyl-2-phenyl-glycine 1,1-dimethylethyl ester (DAPT) or (2S)-2-hydroxy-3-methyl-N-[(1S)-1-methyl-2-oxo-2-[[(1S)-2,3,4,5-tetrahydro-3-methyl-2-oxo-1H-3-benzazepin-1-yl]amino]ethyl]-butanamide (Semagacestat), and DMSO, the final concentration of DMSO being 1%. Recombinant Notch substrate was pre-treated with 17 μM DTT (1,4-dithiothreitol) and 0.02% SDS (Sodium Dodecyl Sulfate) and heated at 65° C. for 10 min. The mixture of substrate, gamma secretase and compound/DMSO was incubated at 37° C. for 6 to 22 hours (h). Six-hour incubation was sufficient to produce the maximal amount of NICD and the cleaved product remained stable for an additional 16 H. Reaction products were processed for SDS PAGE (Sodium Dodecyl Sulfate-Poly Acrylamide Gel Electrophoresis) and western blotting. Blots were probed with an anti-Flag M2 antibody, followed by LI-COR infrared secondary antibody, and analyzed with the Odyssey Infrared Imaging System (LI-COR® Biosciences).

[8] = tested on: mouse Notch2; assay: Notch cell-based assay (N2-CHO/DL-CHO co-culture, Dual-Glo luciferase, NICD production); conditions: Mus musculus; N2-CHO/DL-CHO co-culture 16 H; five-point curve 3 μM-0.3 nM; read-out: average IC50 values from the Notch cell-based assay (luciferase assay readouts)
Text: The Notch cell-based assay was based on the interaction of Notch and its ligand in a co-culture system and utilized the Dual-Glo Luciferase Assay System (Promega) to monitor NICD production. Two stable cell lines, N2-CHO and DL-CHO, were established to express full-length mouse Notch2 and Delta respectively. Cells that expressed mouse Notch were also transfected with two plasmids, pTP1-Luc and pCMV-RLuc, to express firefly and Renilla luciferase. Expression of firefly luciferase was under the control of TP1 promoter that responded to NICD activation.
N2-CHO cells were seeded at 1×10^5/well in 24-well plates the day before transfection. On the second day, cells were double transfected with 3 μg/well pTP1-Luc (expressing firefly luciferase) and 0.3 ng/well pCMV-RLuc (expressing Renilla luciferase). After 6 H incubation, transfected N2-CHO cells were washed and DL-CHO cells (2×10^5 cells/well) were added.
Compounds were pre-mixed with DL-CHO cell suspension in a five-point curve. Typically, compound treatment was performed in duplicate with a serial 1:10 dilution (3 μM-0.3 nM) in DMSO. The final concentration of DMSO in a given culture was 1%. Controls included non-transfected cells and transfected cells treated with a GSI or DMSO only. Luciferase assays were performed after 16 H co-culture and compound treatment.
The luciferase assay was carried out according to manufacture's instructions. Briefly, cells were washed with PBS (Phosphate Buffered Saline), lysed with Passive Lysis Buffer (Promega), and incubated at room temperature for 20 min. Lysates were mixed with Dual-Glo Luciferase Reagent and the firefly luciferase activity was measured by reading the luminescence signal in the EnVision 2101 Multilabel reader. Dual-Glo Stop & Glo Reagent was then added to each well and the Renilla luciferase signal was measured.

[9] = Homo sapiens, SKNBE2, Table 7b, averaged IC50, non-linear regression of percentage of control vs log concentration, 4-parameter equation
[10] = Homo sapiens, Table 7a, SKNBE2 cells, compounds 18 h, XLfit 4-parameter fit of percent inhibition, top/bottom fixed to 100/0, hill slope 1
[11] = Table 7b, averaged IC50, non-linear regression of percentage of control vs log concentration, 4-parameter equation

melting point [°C] | IC50 [3, 9] [nM] | IC50 [3, 10] [nM] | IC50 [4, 9] [nM] | IC50 [4, 10] [nM] | IC50 [8] [nM] | Compound | Aβ42 (% Ctrl)_Mean [1] [% Ctrl] | Aβtotal (% Ctrl)_Mean [2] [% Ctrl] | effect on the Notch-processing activity of the γ-secretase-complex (production of NICD) [7] | further results
157.6 | > 3000 | > 3000 | 63 | 65 |  | COc1cc(Nc2cccc3c2nc(-c2ccc(F)cc2)n3C)ccc1-c1cnn(C)c1 [Compound 13] | 87 | 105 |  | 
204.9 | > 3000 | > 3000 | 105 | 109 |  | COc1cc(Nc2nccc3c2nc(-c2ccc(F)cc2)n3C)ccc1-c1cnc(C)o1 [Compound 14] | 78 | 91 |  | 
 |  |  |  |  |  | Cc1ncc(-c2ccc(Nc3cc(F)cc4c3nc(-c3ccc(F)cc3)n4C)cn2)o1 [Compound 106] |  |  | did not show an effect | IC50 [5]: > 10000 nM; IC50 [6]: 24 nM; IC50 [3, 11]: > 1000 nM; IC50 [4, 11]: 10 nM
157.1 | > 10000 |  | 25 |  |  | COC(=O)c1cc(Nc2ccc(-c3ocnc3C)c(OC)c2)c2nc(CC(C)C)cn2c1 [Compound 162] |  |  |  | IC50 ([5]; Homo sapiens): > 10000 nM; IC50 ([6]; Homo sapiens): 32 nM
 |  |  |  |  | 45 | C[C@H](NC(=O)Cc1cc(F)cc(F)c1)C(=O)NC(C(=O)OC(C)(C)C)c1ccccc1 (stereo partly drawn) [DAPT, (2S)—N-[2-(3,5-difluorophenyl)acetyl]-L-alanyl-2-phenyl-glycine 1,1-dimethylethyl ester, reference compound] |  |  | blocked | 
 |  |  |  |  | 40 | CC(C)[C@H](O)C(=O)N[C@@H](C)C(=O)N[C@@H]1C(=O)N(C)CCc2ccccc21 [Semagacestat, (2S)-2-hydroxy-3-methyl-N-[(1S)-1-methyl-2-oxo-2-[[(1S)-2,3,4,5-tetrahydro-3-methyl-2-oxo-1H-3-benzazepin-1-yl]amino]ethyl]-butanamide, reference compound] |  |  | blocked | 
